Assay results published in patent US9060955B2, “Transdermal therapeutic system with crystallization-inhibiting protective film (release liner)” (Bayer Intellectual Property GmbH, priority 2010, dated 2015).

Assay: Solubility of GSD in the active-ingredient-containing matrix
Format: physicochemical

For C#C[C@]1(O)C=C[C@H]2[C@@H]3CCC4=CC(=O)CC[C@@H]4[C@H]3CC[C@@]21CC [GSD, gestodene], which “Solubility in the active-ingredient-containing matrix” value is on record?
The value was “ca. 2%”.
